Results as given in ChEMBL document CHEMBL5543108, “Structure-based design and synthesis of BML284 derivatives: A novel class of colchicine-site noncovalent tubulin degradation agents” (Eur J Med Chem, 2024).
Where a name gives a salt, the structure may show the parent alone.

system: HeLa; experiment: Antiproliferative activity against human HeLa cells assessed as reduction in cell viability measured after 72 hrs; type: functional, cell-based; conditions: not given

Row | Compound | IC50
1 | C=CCN(Cc1ccc2c(c1)OCO2)c1cc(-c2cccc(OC)c2)nc(N)n1 | 110 nM
2 | Cn1cc2c(-c3cc(NCc4ccc5c(c4)OCO5)nc(N)n3)cccc2n1 | > 2000 nM
3 | COc1cccc(-c2cc(NCc3ccc(OC(F)(F)F)cc3)nc(N)n2)c1 | 430 nM
4 | COc1cccc(-c2cc(NCc3cc(OC)c(OC)c(OC)c3)nc(N)n2)c1 | 330 nM
5 | COc1cccc(-c2cc(NCc3ccc(F)cc3F)nc(N)n2)c1 | 360 nM
6 | Nc1nc(NCc2ccc3c(c2)OCO3)cc(-c2cccc(OCc3ccccc3)c2)n1 | > 2000 nM
7 | Nc1nc(NCc2ccc3c(c2)OCO3)cc(-c2ccc3c(c2)OCCO3)n1 | 520 nM
8 | COc1cccc(-c2cc(NCc3ccc4ccccc4c3)nc(N)n2)c1 | 290 nM
9 | COc1cccc(-c2cc(N3CCc4cc(OC)c(OC)cc4C3)nc(N)n2)c1 | 230 nM
10 | Nc1nc(NCc2ccc3c(c2)OCO3)cc(-c2cccc(-c3ccccc3)c2)n1 | > 2000 nM
11 | COc1cc(OC)cc(-c2cc(NCc3ccc4c(c3)OCO4)nc(N)n2)c1 | 180 nM
12 | COc1cccc(-c2cc(NCc3cc(F)cc(F)c3)nc(N)n2)c1 | 610 nM

More lines, now with the values ahead:

Row | IC50 | Compound
13 | > 2000 nM | CC(C)(C)c1ccc(-c2cc(NCc3ccc4c(c3)OCO4)nc(N)n2)cc1
14 | > 2000 nM | CC(=O)c1cccc(-c2cc(NCc3ccc4c(c3)OCO4)nc(N)n2)c1
15 | 280 nM | CN(C)c1cccc(-c2cc(NCc3ccc4c(c3)OCO4)nc(N)n2)c1
16 | > 2000 nM | Nc1nc(NCc2ccc3c(c2)OCO3)cc(-c2ccc(-c3ccccc3)cc2)n1
17 | 90 nM | COc1cccc(-c2cc(NCc3ccc4c(c3)OCO4)nc(N)n2)c1
18 | > 2000 nM | Nc1nc(NCc2ccc3c(c2)OCO3)cc(-c2ccncc2)n1
19 | > 2000 nM | CC(C)c1ccc(-c2cc(NCc3ccc4c(c3)OCO4)nc(N)n2)cc1
20 | 200 nM | COc1ccc(-c2cc(NCc3ccc4c(c3)OCO4)nc(N)n2)cn1
21 | > 2000 nM | Nc1nc(NCc2ccc3c(c2)OCO3)cc(-c2ccc(F)cc2)n1
22 | > 2000 nM | CCOc1ccc(-c2cc(NCc3ccc4c(c3)OCO4)nc(N)n2)cc1

system: K562; experiment: Antiproliferative activity against human K562 cells assessed as reduction in cell viability measured after 72 hrs; type: functional, cell-based; conditions: K562, 72 h

Row | Compound | IC50
23 | C=CCN(Cc1ccc2c(c1)OCO2)c1cc(-c2cccc(OC)c2)nc(N)n1 | 60 nM
24 | Cn1cc2c(-c3cc(NCc4ccc5c(c4)OCO5)nc(N)n3)cccc2n1 | > 2000 nM
25 | COc1cccc(-c2cc(NCc3ccc(OC(F)(F)F)cc3)nc(N)n2)c1 | 260 nM
26 | COc1cccc(-c2cc(NCc3cc(OC)c(OC)c(OC)c3)nc(N)n2)c1 | 280 nM
27 | COc1cccc(-c2cc(NCc3ccc(F)cc3F)nc(N)n2)c1 | 120 nM
28 | Nc1nc(NCc2ccc3c(c2)OCO3)cc(-c2cccc(OCc3ccccc3)c2)n1 | 740 nM
29 | Nc1nc(NCc2ccc3c(c2)OCO3)cc(-c2ccc3c(c2)OCCO3)n1 | 170 nM
30 | COc1cccc(-c2cc(NCc3ccc4ccccc4c3)nc(N)n2)c1 | 320 nM
31 | COc1cccc(-c2cc(N3CCc4cc(OC)c(OC)cc4C3)nc(N)n2)c1 | 330 nM
32 | Nc1nc(NCc2ccc3c(c2)OCO3)cc(-c2cccc(-c3ccccc3)c2)n1 | > 2000 nM
33 | COc1cc(OC)cc(-c2cc(NCc3ccc4c(c3)OCO4)nc(N)n2)c1 | 60 nM
34 | COc1cccc(-c2cc(NCc3cc(F)cc(F)c3)nc(N)n2)c1 | 350 nM

Further lines, results first:

Row | IC50 | Compound
35 | > 2000 nM | CC(C)(C)c1ccc(-c2cc(NCc3ccc4c(c3)OCO4)nc(N)n2)cc1
36 | > 2000 nM | CC(=O)c1cccc(-c2cc(NCc3ccc4c(c3)OCO4)nc(N)n2)c1
37 | 300 nM | CN(C)c1cccc(-c2cc(NCc3ccc4c(c3)OCO4)nc(N)n2)c1
38 | > 2000 nM | Nc1nc(NCc2ccc3c(c2)OCO3)cc(-c2ccc(-c3ccccc3)cc2)n1
39 | 100 nM | COc1cccc(-c2cc(NCc3ccc4c(c3)OCO4)nc(N)n2)c1
40 | > 2000 nM | Nc1nc(NCc2ccc3c(c2)OCO3)cc(-c2ccncc2)n1
41 | > 2000 nM | CC(C)c1ccc(-c2cc(NCc3ccc4c(c3)OCO4)nc(N)n2)cc1
42 | 120 nM | COc1ccc(-c2cc(NCc3ccc4c(c3)OCO4)nc(N)n2)cn1
43 | > 2000 nM | Nc1nc(NCc2ccc3c(c2)OCO3)cc(-c2ccc(F)cc2)n1
44 | > 2000 nM | CCOc1ccc(-c2cc(NCc3ccc4c(c3)OCO4)nc(N)n2)cc1

system: MOLM-13; experiment: Antiproliferative activity against human MOLM-13 cells assessed as reduction in cell viability measured after 72 hrs; type: functional, cell-based; conditions: MOLM-13, 72 h

Row | Compound | IC50
45 | C=CCN(Cc1ccc2c(c1)OCO2)c1cc(-c2cccc(OC)c2)nc(N)n1 | 60 nM
46 | Cn1cc2c(-c3cc(NCc4ccc5c(c4)OCO5)nc(N)n3)cccc2n1 | > 2000 nM
47 | COc1cccc(-c2cc(NCc3ccc(OC(F)(F)F)cc3)nc(N)n2)c1 | 280 nM
48 | COc1cccc(-c2cc(NCc3cc(OC)c(OC)c(OC)c3)nc(N)n2)c1 | 110 nM
49 | COc1cccc(-c2cc(NCc3ccc(F)cc3F)nc(N)n2)c1 | 130 nM
50 | Nc1nc(NCc2ccc3c(c2)OCO3)cc(-c2cccc(OCc3ccccc3)c2)n1 | 1010 nM
51 | Nc1nc(NCc2ccc3c(c2)OCO3)cc(-c2ccc3c(c2)OCCO3)n1 | 240 nM
52 | COc1cccc(-c2cc(NCc3ccc4ccccc4c3)nc(N)n2)c1 | 130 nM
53 | COc1cccc(-c2cc(N3CCc4cc(OC)c(OC)cc4C3)nc(N)n2)c1 | 170 nM
54 | Nc1nc(NCc2ccc3c(c2)OCO3)cc(-c2cccc(-c3ccccc3)c2)n1 | > 2000 nM
55 | COc1cc(OC)cc(-c2cc(NCc3ccc4c(c3)OCO4)nc(N)n2)c1 | 60 nM
56 | COc1cccc(-c2cc(NCc3cc(F)cc(F)c3)nc(N)n2)c1 | 220 nM

Results, then the molecule that gave them:

Row | IC50 | Compound
57 | > 2000 nM | CC(C)(C)c1ccc(-c2cc(NCc3ccc4c(c3)OCO4)nc(N)n2)cc1
58 | > 2000 nM | CC(=O)c1cccc(-c2cc(NCc3ccc4c(c3)OCO4)nc(N)n2)c1
59 | 360 nM | CN(C)c1cccc(-c2cc(NCc3ccc4c(c3)OCO4)nc(N)n2)c1
60 | > 2000 nM | Nc1nc(NCc2ccc3c(c2)OCO3)cc(-c2ccc(-c3ccccc3)cc2)n1
61 | 190 nM | COc1cccc(-c2cc(NCc3ccc4c(c3)OCO4)nc(N)n2)c1
62 | > 2000 nM | Nc1nc(NCc2ccc3c(c2)OCO3)cc(-c2ccncc2)n1
63 | > 2000 nM | CC(C)c1ccc(-c2cc(NCc3ccc4c(c3)OCO4)nc(N)n2)cc1
64 | 190 nM | COc1ccc(-c2cc(NCc3ccc4c(c3)OCO4)nc(N)n2)cn1
65 | > 2000 nM | Nc1nc(NCc2ccc3c(c2)OCO3)cc(-c2ccc(F)cc2)n1
66 | > 2000 nM | CCOc1ccc(-c2cc(NCc3ccc4c(c3)OCO4)nc(N)n2)cc1

system: NCI/ADR-RES; experiment: Antiproliferative activity against human MCF7ADR cells assessed as reduction in cell viability measured after 72 hrs; type: functional, cell-based; conditions: not given

Row | Compound | IC50
67 | COc1cccc2c1C(=O)c1c(O)c3c(c(O)c1C2=O)C[C@@](O)(C(=O)CO)C[C@@H]3O[C@H]1C[C@H](N)[C@H](O)[C@H](C)O1 [DOXORUBICIN HYDROCHLORIDE] | 8630 nM

system: HCT-116; experiment: cells; conditions: Homo sapiens, HCT-116, 72 h
Description: Antiproliferative activity against human HCT-116 cells assessed as reduction in cell viability measured after 72 hrs

Row | Compound | IC50
68 | C=CCN(Cc1ccc2c(c1)OCO2)c1cc(-c2cccc(OC)c2)nc(N)n1 | 97 nM
69 | Cn1cc2c(-c3cc(NCc4ccc5c(c4)OCO5)nc(N)n3)cccc2n1 | > 2000 nM
70 | COc1cccc(-c2cc(NCc3ccc(OC(F)(F)F)cc3)nc(N)n2)c1 | 260 nM
71 | COc1cccc(-c2cc(NCc3cc(OC)c(OC)c(OC)c3)nc(N)n2)c1 | 160 nM
72 | COc1cccc(-c2cc(NCc3ccc(F)cc3F)nc(N)n2)c1 | 180 nM
73 | Nc1nc(NCc2ccc3c(c2)OCO3)cc(-c2cccc(OCc3ccccc3)c2)n1 | 1050 nM
74 | Nc1nc(NCc2ccc3c(c2)OCO3)cc(-c2ccc3c(c2)OCCO3)n1 | 710 nM
75 | COc1cccc(-c2cc(NCc3ccc4ccccc4c3)nc(N)n2)c1 | 130 nM
76 | COc1cccc(-c2cc(N3CCc4cc(OC)c(OC)cc4C3)nc(N)n2)c1 | 210 nM
77 | Nc1nc(NCc2ccc3c(c2)OCO3)cc(-c2cccc(-c3ccccc3)c2)n1 | > 2000 nM
78 | COc1cc(OC)cc(-c2cc(NCc3ccc4c(c3)OCO4)nc(N)n2)c1 | 330 nM
79 | COc1cccc(-c2cc(NCc3cc(F)cc(F)c3)nc(N)n2)c1 | 450 nM

Now from value to molecule:

Row | IC50 | Compound
80 | > 2000 nM | CC(C)(C)c1ccc(-c2cc(NCc3ccc4c(c3)OCO4)nc(N)n2)cc1
81 | > 2000 nM | CC(=O)c1cccc(-c2cc(NCc3ccc4c(c3)OCO4)nc(N)n2)c1
82 | 550 nM | CN(C)c1cccc(-c2cc(NCc3ccc4c(c3)OCO4)nc(N)n2)c1
83 | > 2000 nM | Nc1nc(NCc2ccc3c(c2)OCO3)cc(-c2ccc(-c3ccccc3)cc2)n1
84 | 520 nM | COc1cccc(-c2cc(NCc3ccc4c(c3)OCO4)nc(N)n2)c1
85 | > 2000 nM | Nc1nc(NCc2ccc3c(c2)OCO3)cc(-c2ccncc2)n1
86 | > 2000 nM | CC(C)c1ccc(-c2cc(NCc3ccc4c(c3)OCO4)nc(N)n2)cc1
87 | 820 nM | COc1ccc(-c2cc(NCc3ccc4c(c3)OCO4)nc(N)n2)cn1
88 | > 2000 nM | Nc1nc(NCc2ccc3c(c2)OCO3)cc(-c2ccc(F)cc2)n1
89 | > 2000 nM | CCOc1ccc(-c2cc(NCc3ccc4c(c3)OCO4)nc(N)n2)cc1

system: MCF7; experiment: cells; conditions: Homo sapiens, MCF7, 72 h
Description: Antiproliferative activity against human MCF7 cells assessed as reduction in cell viability measured after 72 hrs

Row | Compound | IC50
90 | C=CCN(Cc1ccc2c(c1)OCO2)c1cc(-c2cccc(OC)c2)nc(N)n1 | 60 nM
91 | Cn1cc2c(-c3cc(NCc4ccc5c(c4)OCO5)nc(N)n3)cccc2n1 | > 2000 nM
92 | COc1cccc(-c2cc(NCc3ccc(OC(F)(F)F)cc3)nc(N)n2)c1 | 590 nM
93 | COc1cccc(-c2cc(NCc3cc(OC)c(OC)c(OC)c3)nc(N)n2)c1 | 280 nM
94 | COc1cccc(-c2cc(NCc3ccc(F)cc3F)nc(N)n2)c1 | 540 nM
95 | Nc1nc(NCc2ccc3c(c2)OCO3)cc(-c2cccc(OCc3ccccc3)c2)n1 | > 2000 nM
96 | Nc1nc(NCc2ccc3c(c2)OCO3)cc(-c2ccc3c(c2)OCCO3)n1 | 650 nM
97 | COc1cccc(-c2cc(NCc3ccc4ccccc4c3)nc(N)n2)c1 | 290 nM
98 | COc1cccc(-c2cc(N3CCc4cc(OC)c(OC)cc4C3)nc(N)n2)c1 | 220 nM
99 | Nc1nc(NCc2ccc3c(c2)OCO3)cc(-c2cccc(-c3ccccc3)c2)n1 | > 2000 nM
100 | COc1cc(OC)cc(-c2cc(NCc3ccc4c(c3)OCO4)nc(N)n2)c1 | 350 nM
101 | COc1cccc(-c2cc(NCc3cc(F)cc(F)c3)nc(N)n2)c1 | 620 nM

Results, then the molecule that gave them:

Row | IC50 | Compound
102 | > 2000 nM | CC(C)(C)c1ccc(-c2cc(NCc3ccc4c(c3)OCO4)nc(N)n2)cc1
103 | > 2000 nM | CC(=O)c1cccc(-c2cc(NCc3ccc4c(c3)OCO4)nc(N)n2)c1
104 | 530 nM | CN(C)c1cccc(-c2cc(NCc3ccc4c(c3)OCO4)nc(N)n2)c1
105 | > 2000 nM | Nc1nc(NCc2ccc3c(c2)OCO3)cc(-c2ccc(-c3ccccc3)cc2)n1
106 | 690 nM | COc1cccc(-c2cc(NCc3ccc4c(c3)OCO4)nc(N)n2)c1
107 | > 2000 nM | Nc1nc(NCc2ccc3c(c2)OCO3)cc(-c2ccncc2)n1
108 | > 2000 nM | CC(C)c1ccc(-c2cc(NCc3ccc4c(c3)OCO4)nc(N)n2)cc1
109 | 1250 nM | COc1ccc(-c2cc(NCc3ccc4c(c3)OCO4)nc(N)n2)cn1
110 | > 2000 nM | Nc1nc(NCc2ccc3c(c2)OCO3)cc(-c2ccc(F)cc2)n1
111 | > 2000 nM | CCOc1ccc(-c2cc(NCc3ccc4c(c3)OCO4)nc(N)n2)cc1
